Measured values taken from paper PMC11345841, “Exploring 2-Sulfonylpyrimidine Warheads as Acrylamide Surrogates for Targeted Covalent Inhibition: A BTK Story” (Journal of Medicinal Chemistry, 2024).
Read-outs that look alike come from different tables or passages of the source.

Experiments:
Assay in all cases: KINOMEscan ScanTK
Format in all cases: binding
EPHB6 = target: T1, EPHB6 (Homo sapiens, UniProt O15197)
T1 construct: purchased Eurofins DiscoverX KINOMEscan (scanTK)
T1 sequence (O15197 32-1021): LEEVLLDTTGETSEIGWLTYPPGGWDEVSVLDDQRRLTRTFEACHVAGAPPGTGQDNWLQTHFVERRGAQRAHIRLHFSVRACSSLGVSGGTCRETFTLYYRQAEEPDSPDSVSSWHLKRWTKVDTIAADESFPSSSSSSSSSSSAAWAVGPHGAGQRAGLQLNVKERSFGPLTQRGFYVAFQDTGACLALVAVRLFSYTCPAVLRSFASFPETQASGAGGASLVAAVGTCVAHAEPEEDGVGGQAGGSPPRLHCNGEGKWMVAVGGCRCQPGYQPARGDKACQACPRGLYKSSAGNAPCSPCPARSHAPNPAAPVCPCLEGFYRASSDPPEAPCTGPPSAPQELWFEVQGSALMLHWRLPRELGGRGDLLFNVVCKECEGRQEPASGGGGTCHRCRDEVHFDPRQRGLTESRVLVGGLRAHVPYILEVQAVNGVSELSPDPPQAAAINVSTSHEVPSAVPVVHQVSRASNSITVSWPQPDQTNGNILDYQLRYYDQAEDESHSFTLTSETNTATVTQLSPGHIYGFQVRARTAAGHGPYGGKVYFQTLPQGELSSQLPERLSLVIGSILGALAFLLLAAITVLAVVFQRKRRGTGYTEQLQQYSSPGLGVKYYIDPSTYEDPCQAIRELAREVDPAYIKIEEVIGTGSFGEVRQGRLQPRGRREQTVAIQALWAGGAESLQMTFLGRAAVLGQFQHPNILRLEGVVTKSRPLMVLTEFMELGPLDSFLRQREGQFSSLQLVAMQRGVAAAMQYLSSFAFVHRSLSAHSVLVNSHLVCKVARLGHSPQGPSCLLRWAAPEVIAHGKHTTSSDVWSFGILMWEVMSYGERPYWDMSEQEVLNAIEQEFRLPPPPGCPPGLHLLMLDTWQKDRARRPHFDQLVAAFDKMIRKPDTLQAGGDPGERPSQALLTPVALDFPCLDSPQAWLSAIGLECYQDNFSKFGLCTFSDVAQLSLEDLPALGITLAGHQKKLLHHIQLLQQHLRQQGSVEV

[1] = target: T2, ABL1(Q252H)-phosphorylated (Homo sapiens, UniProt P00519, Q252H)
T2 construct: purchased Eurofins DiscoverX KINOMEscan (scanTK)

EGFR(L858R) = target: T3, EGFR(L858R) (Homo sapiens, UniProt P00533, L858R)
T3 construct: purchased Eurofins DiscoverX KINOMEscan (scanTK)
T3 sequence (P00533 25-1210 L858R): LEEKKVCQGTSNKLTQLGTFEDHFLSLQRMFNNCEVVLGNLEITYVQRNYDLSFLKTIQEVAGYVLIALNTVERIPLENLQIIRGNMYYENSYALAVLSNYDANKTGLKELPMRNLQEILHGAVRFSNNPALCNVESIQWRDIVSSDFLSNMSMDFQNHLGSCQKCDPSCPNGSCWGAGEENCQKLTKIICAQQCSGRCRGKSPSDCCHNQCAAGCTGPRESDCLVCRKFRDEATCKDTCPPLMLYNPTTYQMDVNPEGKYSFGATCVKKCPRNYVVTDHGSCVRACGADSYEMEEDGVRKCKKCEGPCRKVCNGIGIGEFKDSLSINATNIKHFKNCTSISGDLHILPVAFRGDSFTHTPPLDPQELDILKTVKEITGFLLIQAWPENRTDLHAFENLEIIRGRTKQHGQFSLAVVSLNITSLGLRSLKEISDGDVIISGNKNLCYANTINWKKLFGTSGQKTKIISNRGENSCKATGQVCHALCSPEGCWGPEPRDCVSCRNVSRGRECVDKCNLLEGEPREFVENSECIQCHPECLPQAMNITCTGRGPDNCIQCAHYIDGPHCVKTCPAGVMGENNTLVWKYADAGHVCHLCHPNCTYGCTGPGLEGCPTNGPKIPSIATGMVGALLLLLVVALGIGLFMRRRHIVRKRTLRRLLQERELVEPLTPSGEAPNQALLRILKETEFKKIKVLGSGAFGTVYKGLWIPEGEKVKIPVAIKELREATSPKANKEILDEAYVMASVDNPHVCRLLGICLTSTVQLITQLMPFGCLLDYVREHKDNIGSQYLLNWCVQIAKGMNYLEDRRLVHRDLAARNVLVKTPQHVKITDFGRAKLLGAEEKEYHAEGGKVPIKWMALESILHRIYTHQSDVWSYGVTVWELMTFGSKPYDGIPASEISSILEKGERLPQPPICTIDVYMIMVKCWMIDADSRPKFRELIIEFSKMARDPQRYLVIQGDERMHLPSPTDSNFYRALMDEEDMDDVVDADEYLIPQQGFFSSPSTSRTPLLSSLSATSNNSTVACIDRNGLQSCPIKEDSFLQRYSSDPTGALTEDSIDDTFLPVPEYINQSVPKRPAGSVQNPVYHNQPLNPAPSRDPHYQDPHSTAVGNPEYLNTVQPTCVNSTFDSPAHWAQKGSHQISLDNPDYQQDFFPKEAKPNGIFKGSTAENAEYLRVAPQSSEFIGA

KIT(A829P) = target: T4, KIT(A829P) (Homo sapiens, UniProt P10721, A829P)
T4 construct: purchased Eurofins DiscoverX KINOMEscan (scanTK)
T4 sequence (P10721 26-976 A829P): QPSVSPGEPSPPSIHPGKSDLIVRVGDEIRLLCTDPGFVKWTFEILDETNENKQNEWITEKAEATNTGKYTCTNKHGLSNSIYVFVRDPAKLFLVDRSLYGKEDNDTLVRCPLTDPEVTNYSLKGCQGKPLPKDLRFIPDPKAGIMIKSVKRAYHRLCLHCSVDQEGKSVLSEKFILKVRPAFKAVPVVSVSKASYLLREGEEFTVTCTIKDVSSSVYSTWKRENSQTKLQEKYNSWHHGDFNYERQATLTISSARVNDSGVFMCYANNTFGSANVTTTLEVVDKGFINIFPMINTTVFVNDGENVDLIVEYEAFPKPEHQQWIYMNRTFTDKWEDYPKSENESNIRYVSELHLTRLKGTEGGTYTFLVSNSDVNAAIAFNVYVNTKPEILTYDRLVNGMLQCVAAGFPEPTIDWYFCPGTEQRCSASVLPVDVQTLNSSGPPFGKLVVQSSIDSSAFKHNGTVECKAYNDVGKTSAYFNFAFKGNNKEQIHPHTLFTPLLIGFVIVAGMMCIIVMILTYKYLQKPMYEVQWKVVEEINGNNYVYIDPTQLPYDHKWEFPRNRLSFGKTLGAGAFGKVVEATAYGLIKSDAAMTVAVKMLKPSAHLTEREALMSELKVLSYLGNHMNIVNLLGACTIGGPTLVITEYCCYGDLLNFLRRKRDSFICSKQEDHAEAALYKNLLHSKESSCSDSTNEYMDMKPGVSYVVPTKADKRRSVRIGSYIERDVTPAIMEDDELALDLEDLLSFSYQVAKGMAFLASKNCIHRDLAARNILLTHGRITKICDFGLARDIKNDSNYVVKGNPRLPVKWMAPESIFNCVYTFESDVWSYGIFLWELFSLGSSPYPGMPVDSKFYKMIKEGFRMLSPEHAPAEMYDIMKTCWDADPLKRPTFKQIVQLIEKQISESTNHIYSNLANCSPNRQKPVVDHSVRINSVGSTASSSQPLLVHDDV

RET = target: T5, RET (Homo sapiens, UniProt P07949)
T5 construct: purchased Eurofins DiscoverX KINOMEscan (scanTK)
T5 sequence (P07949 29-1114): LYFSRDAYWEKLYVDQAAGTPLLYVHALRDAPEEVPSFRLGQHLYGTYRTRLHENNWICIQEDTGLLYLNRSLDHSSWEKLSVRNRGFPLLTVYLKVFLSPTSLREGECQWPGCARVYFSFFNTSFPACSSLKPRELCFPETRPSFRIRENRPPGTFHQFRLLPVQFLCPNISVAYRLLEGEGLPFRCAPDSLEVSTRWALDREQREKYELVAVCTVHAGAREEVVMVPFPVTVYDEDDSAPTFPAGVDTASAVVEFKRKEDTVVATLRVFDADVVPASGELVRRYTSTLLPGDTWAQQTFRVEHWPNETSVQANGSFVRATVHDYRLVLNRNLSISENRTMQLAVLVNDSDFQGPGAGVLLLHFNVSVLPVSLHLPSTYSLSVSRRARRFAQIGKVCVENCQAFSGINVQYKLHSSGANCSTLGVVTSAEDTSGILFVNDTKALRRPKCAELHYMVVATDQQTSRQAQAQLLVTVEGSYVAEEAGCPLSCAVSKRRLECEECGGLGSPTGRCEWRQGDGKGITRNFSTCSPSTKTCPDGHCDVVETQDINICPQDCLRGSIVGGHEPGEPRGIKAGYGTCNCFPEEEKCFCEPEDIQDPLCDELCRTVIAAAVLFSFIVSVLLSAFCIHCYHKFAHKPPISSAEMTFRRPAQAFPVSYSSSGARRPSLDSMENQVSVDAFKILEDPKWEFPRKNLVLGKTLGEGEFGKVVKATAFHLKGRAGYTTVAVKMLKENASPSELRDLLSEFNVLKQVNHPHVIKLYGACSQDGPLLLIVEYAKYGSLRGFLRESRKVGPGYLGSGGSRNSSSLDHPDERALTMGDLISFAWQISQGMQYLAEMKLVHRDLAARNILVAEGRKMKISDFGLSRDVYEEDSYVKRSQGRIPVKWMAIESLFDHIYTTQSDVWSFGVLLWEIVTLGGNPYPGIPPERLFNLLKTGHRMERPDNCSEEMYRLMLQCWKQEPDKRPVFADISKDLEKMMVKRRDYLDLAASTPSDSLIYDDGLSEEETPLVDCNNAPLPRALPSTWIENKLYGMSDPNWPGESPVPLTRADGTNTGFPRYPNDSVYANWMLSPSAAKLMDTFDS

[2] = target: T6, ABL1(T315I)-phosphorylated (Homo sapiens, UniProt P00519, T315I)
T6 construct: purchased Eurofins DiscoverX KINOMEscan (scanTK)

ABL1-phosphorylated = target: T7, ABL1-phosphorylated (Homo sapiens, UniProt P00519)
T7 construct: purchased Eurofins DiscoverX KINOMEscan (scanTK)

EPHA3 = target: T8, EPHA3 (Homo sapiens, UniProt P29320)
T8 construct: purchased Eurofins DiscoverX KINOMEscan (scanTK)
T8 sequence (P29320 21-983): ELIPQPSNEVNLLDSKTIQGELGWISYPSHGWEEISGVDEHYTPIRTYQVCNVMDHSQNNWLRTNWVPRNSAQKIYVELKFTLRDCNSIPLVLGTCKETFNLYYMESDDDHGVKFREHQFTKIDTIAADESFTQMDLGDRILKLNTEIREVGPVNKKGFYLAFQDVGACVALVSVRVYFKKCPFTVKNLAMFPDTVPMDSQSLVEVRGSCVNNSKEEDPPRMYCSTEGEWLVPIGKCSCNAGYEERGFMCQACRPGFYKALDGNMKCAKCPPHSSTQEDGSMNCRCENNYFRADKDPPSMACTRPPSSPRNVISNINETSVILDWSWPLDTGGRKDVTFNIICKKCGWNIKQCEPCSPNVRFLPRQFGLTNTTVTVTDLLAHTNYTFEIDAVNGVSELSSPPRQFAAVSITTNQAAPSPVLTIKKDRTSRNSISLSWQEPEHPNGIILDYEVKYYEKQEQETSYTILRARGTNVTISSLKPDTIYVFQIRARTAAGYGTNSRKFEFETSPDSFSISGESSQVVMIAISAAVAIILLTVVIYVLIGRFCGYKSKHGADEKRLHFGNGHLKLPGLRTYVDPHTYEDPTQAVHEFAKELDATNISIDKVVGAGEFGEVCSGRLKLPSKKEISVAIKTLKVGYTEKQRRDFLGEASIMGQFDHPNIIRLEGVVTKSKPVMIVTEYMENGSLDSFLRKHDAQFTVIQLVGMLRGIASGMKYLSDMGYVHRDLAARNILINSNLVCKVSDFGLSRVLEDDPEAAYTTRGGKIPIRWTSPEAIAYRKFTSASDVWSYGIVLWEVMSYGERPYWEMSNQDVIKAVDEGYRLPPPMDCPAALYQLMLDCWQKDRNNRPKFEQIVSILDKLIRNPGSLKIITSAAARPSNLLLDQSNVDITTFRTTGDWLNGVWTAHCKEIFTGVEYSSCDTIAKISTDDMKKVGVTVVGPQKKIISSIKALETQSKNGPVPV

TIE1 = target: T9, TIE1 (Homo sapiens, UniProt P35590)
T9 construct: purchased Eurofins DiscoverX KINOMEscan (scanTK)

EPHA7 = target: T10, EPHA7 (Homo sapiens, UniProt Q15375)
T10 construct: purchased Eurofins DiscoverX KINOMEscan (scanTK)
T10 sequence (Q15375 28-998): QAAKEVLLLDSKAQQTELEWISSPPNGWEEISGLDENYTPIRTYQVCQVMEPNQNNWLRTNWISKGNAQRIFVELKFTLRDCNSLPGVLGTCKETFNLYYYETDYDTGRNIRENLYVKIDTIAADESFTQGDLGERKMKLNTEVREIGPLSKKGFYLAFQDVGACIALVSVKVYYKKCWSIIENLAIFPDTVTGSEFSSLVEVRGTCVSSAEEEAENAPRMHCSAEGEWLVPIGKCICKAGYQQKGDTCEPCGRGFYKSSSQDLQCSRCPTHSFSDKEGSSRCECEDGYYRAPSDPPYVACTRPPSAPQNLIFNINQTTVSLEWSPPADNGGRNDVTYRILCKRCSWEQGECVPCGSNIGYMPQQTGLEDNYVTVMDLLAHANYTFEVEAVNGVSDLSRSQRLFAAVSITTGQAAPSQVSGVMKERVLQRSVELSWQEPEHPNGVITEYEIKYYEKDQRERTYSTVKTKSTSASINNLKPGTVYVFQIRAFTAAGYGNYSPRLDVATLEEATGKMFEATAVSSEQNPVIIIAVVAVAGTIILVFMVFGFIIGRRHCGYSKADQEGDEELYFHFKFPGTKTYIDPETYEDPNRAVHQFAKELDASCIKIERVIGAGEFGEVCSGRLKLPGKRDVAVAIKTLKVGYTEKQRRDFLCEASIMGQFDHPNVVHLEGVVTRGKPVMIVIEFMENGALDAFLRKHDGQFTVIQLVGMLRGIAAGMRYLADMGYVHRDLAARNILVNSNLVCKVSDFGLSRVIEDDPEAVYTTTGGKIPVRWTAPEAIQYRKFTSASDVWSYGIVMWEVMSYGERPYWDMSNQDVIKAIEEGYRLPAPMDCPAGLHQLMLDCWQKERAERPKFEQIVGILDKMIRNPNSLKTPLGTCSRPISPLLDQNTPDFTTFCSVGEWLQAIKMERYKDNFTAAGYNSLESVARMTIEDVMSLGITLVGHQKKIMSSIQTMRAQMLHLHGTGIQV

FES = target: T11, FES (Homo sapiens, UniProt P07332)
T11 construct: purchased Eurofins DiscoverX KINOMEscan (scanTK)
T11 sequence (P07332 whole entry): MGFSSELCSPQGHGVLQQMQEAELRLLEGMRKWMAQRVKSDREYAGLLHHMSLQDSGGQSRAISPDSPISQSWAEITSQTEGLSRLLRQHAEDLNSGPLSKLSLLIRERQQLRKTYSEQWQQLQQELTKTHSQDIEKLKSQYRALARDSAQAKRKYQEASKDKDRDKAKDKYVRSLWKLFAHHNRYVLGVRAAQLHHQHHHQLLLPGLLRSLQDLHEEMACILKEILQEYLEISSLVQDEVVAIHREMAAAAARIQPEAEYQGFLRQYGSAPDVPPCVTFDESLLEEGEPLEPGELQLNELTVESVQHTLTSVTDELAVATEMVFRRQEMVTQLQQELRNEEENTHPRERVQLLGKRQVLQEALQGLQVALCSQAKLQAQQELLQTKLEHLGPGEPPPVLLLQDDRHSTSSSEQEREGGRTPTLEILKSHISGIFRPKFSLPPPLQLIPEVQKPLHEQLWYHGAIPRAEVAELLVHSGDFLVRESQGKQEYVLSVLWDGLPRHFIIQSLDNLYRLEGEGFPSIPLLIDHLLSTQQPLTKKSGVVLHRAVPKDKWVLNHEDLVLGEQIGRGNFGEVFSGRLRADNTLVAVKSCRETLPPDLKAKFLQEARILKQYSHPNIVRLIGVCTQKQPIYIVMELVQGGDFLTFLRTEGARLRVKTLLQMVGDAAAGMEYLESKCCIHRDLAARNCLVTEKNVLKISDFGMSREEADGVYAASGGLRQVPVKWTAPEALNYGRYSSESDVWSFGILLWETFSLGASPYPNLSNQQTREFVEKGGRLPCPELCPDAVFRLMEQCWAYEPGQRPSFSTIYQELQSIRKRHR

KIT(V559D) = target: T12, KIT(V559D) (Homo sapiens, UniProt P10721, V559D)
T12 construct: purchased Eurofins DiscoverX KINOMEscan (scanTK)
T12 sequence (P10721 26-976 V559D): as the sequence (P10721 26-976 A829P) above, with V534D, P804A counted along it

## CNC(=O)c1cnc(S(C)(=O)=O)nc1N1CCCC(n2nc(-c3ccc(Oc4ccccc4)cc3)c3c(N)ncnc32)C1 (centres unmarked) [Compound 8d, 4-(3-(4-Amino-3-(4-phenoxyphenyl)-1H-pyrazolo[3,4-d]pyrimidin-1-yl)piperidin-1-yl)-N-methyl-2-(methylsulfonyl)pyrimidine-5-carboxamide]
EPHB6; @1000nM
  difference in %Control versus compound Ib at 1 µM: 16%
EPHB6; @1000nM, read-out: %Control
  remaining binding at 1 µM: 34%
EPHB6; read-out: %Control @1000nM
  remaining binding at 1 µM: 34%
[1]; @1000nM, read-out: % difference (compound - Ib %Control)
  difference in %Control versus reference Ib at 1 µM: -1%
[1]; @1000nM, read-out: %Control
  remaining binding at 1 µM: 93%
[1]; read-out: %Control @1000nM
  remaining binding at 1 µM: 93%
EGFR(L858R); @1000nM
  %Control difference from compound Ib at 1 µM: 39.1%
EGFR(L858R); @1000nM, read-out: %Control
  remaining binding at 1 µM: 41%
EGFR(L858R); read-out: %Control @1000nM
  remaining binding at 1 µM: 41%
KIT(A829P); @1000nM, read-out: %Control
  remaining binding at 1 µM: 63%
KIT(A829P); read-out: %Control @1000nM
  remaining binding at 1 µM: 63%
RET; @1000nM, read-out: %Control
  remaining binding at 1 µM: 31%
RET; read-out: %Control @1000nM
  remaining binding at 1 µM: 31%
[2]; @1000nM
  difference in %Control versus compound Ib at 1 µM: 6%
[2]; @1000nM, read-out: %Control
  remaining binding at 1 µM: 85%
[2]; read-out: %Control @1000nM
  remaining binding at 1 µM: 85%
ABL1-phosphorylated; @1000nM
  difference in %Control from compound Ib at 1 µM: -5%
ABL1-phosphorylated; @1000nM, read-out: %Control
  remaining binding at 1 µM: 55%
ABL1-phosphorylated; read-out: %Control @1000nM
  remaining binding at 1 µM: 55%
EPHA3; @1000nM
  difference in % of control versus compound Ib at 1 µM: 8%
EPHA3; @1000nM, read-out: %Control
  remaining binding at 1 µM: 84%
EPHA3; read-out: %Control @1000nM
  remaining binding at 1 µM: 84%
TIE1; @1000nM, read-out: %Control
  remaining binding at 1 µM: 69%
TIE1; read-out: %Control @1000nM
  remaining binding at 1 µM: 69%
EPHA7; @1000nM
  difference in %Control versus compound Ib at 1 µM: 4%
EPHA7; @1000nM, read-out: %Control
  remaining binding at 1 µM: 99%
EPHA7; read-out: %Control @1000nM
  remaining binding at 1 µM: 99%
FES; @1000nM
  difference in %Control versus compound Ib at 1 µM: 0%
FES; @1000nM, read-out: %Control
  remaining binding at 1 µM: 100%
FES; read-out: %Control @1000nM
  remaining binding at 1 µM: 100%
KIT(V559D); @1000nM, read-out: %Control
  remaining binding at 1 µM: 60%
KIT(V559D); read-out: %Control @1000nM
  remaining binding at 1 µM: 60%
